{"source": "patent US20150125889A1", "about": "“IN VITRO DETECTION OF MICROORGANISMS WITH AZOREDUCTASE ACTIVITY” (BIOMÉRIEUX, priority 2012, published 2015)", "test": "Test of reduction of Methyl red by food matrices (Example 3)", "parameters": "key to Increase in fluorescence over 24 hours: The symbol “−” means that there is no growth or increase in fluorescence of the medium indicating a reduction of the substrate over 24 hours", "conditions": "for Increase in fluorescence over 24 hours: 35 mg/l of Methyl red in TSB, 250 nm/395 nm, 35° C.", "method": "Nine food matrices, some of which have high enzymatic activity (for which the use of Tempo®TVC is not recommended), listed in Table VIII, are tested, in a microtitration plate, in the presence of 35 mg/l of Methyl red in TSB medium to which is added an antimicrobial cocktail combining 200 mg/l of chloramphenicol and 6 mg/l of gentamycin to inhibit the growth of bacteria and fungi. The matrices are tested at different concentrations: 1/400, 1/4000 and […]. To do this, 10 g of matrices are weighed out and dispersed by stomaching in 90 ml of Tryptone-salt solution, which corresponds to a 1/10 dilution, from which the test dilutions are made. The reduction of the substrate and the growth of the microorganisms are monitored using an Infinite® M200 Tecan microplate reader at 35° C. over 24 hours. The reduction of the Methyl red is monitored by reading the fluorescence with the wavelength pair 250 nm/395 nm. The potential growth of microorganisms is monitored by reading the absorbance at 660 nm. The symbol “−” means that there is no growth or increase in fluorescence of the medium indicating a reduction of the substrate over 24 hours.", "data": [{"smiles": "CN(C)c1ccc(/N=N/c2ccccc2C(=O)O)cc1", "note": "[Methyl red]", "values": [{"measurement": "Increase in fluorescence over 24 hours", "setting": "Avocado + ATB", "value": "−"}, {"measurement": "Increase in fluorescence over 24 hours", "setting": "Brie de Meaux AOC cheese + ATB", "value": "−"}, {"measurement": "Increase in fluorescence over 24 hours", "setting": "Fresh tagliatelle + ATB", "value": "−"}, {"measurement": "Increase in fluorescence over 24 hours", "setting": "Melon + ATB", "value": "−"}, {"measurement": "Increase in fluorescence over 24 hours", "setting": "Microfiltered whole milk + ATB", "value": "−"}, {"measurement": "Increase in fluorescence over 24 hours", "setting": "Mussels + ATB", "value": "−"}, {"measurement": "Increase in fluorescence over 24 hours", "setting": "Pink shrimps + ATB", "value": "−"}, {"measurement": "Increase in fluorescence over 24 hours", "setting": "Raw calf liver + ATB", "value": "−"}, {"measurement": "Increase in fluorescence over 24 hours", "setting": "Salami + ATB", "value": "−"}, {"measurement": "reduction of the Methyl red by the food matrix (text on Table IX)", "setting": "nine food matrices with antimicrobial cocktail, no growth of microorganisms", "value": "no reduction"}]}]}
